{"source": "patent US20210078988A1", "about": "“MODULATORS OF INDOLEAMINE 2,3-DIOXYGENASE” (GLAXOSMITHKLINE INTELLECTUAL PROPERTY DEVELOPMENT LIMITED, priority 2017, published 2021)", "molecular_target": "T1, indoleamine 2, 3-dioxygenase (IDO1) (Homo sapiens, UniProt P14902)", "T1 construct": "human peripheral blood mononuclear cells (PBMC) (PB003F; host or cells: human PBMC stimulated with IFN-gamma and LPS", "T1 sequence (P14902 whole entry)": "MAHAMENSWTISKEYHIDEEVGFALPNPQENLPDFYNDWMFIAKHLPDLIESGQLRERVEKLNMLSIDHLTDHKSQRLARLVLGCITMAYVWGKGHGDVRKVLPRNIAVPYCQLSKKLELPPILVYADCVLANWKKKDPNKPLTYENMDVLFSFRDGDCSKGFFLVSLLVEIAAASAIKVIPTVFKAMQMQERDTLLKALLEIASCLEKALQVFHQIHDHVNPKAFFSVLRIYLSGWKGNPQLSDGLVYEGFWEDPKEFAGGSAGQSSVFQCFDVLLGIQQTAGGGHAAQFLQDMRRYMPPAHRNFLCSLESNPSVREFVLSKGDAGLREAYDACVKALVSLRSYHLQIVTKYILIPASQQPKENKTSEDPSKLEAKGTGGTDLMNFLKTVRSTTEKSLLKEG", "assay": "PBMC IDO1 assay (kynurenine detection via mass spectrometry)", "assay_type": "cell-based", "conditions": "human PBMC stimulated with IFN-γ and LPS, 2 days, kynurenine by mass spectrometry; read-out: IDO1 PBMC pIC50 (converted)", "method_in_brief": "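Human PBMCs (50,000/well) stimulated with IFN-γ 100 ng/ml and LPS 50 ng/ml were exposed to 11-point 3-fold compound dilutions for 2 days at 37 °C. Supernatant kynurenine was quantified by RapidFire MS relative to an internal standard; parallel CellTiter-Glo ATP luminescence measured cytotoxicity, with four-parameter curve fitting.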"}
{"smiles": "CCN(CCOC)c1nnc(C(CC2CCN(C(=O)OC(C)(C)C)CC2)NC(=O)c2ccc(C)s2)o1", "note": "(stereo not drawn) [Example 82, tert-butyl 4-(2-(5-(ethyl(2-methoxyethyl)amino)-1,3,4-oxadiazol-2-yl)-2-(5-methylthiophene-2-carboxamido)ethyl)piperidine-1-carboxylate]", "values": [{"measurement": "IC50", "result": 0.0158, "unit": "µM"}]}
{"smiles": "CC(C)(C)OC(=O)N1CCC(C[C@@H](CCNCc2ccccc2)NC(=O)c2ccc(Cl)s2)CC1", "note": "[Example 83, (S)-tert-butyl 4-(4-(benzylamino)-2-(5-chlorothiophene-2-carboxamido)butyl)piperidine-1-carboxylate]", "values": [{"measurement": "IC50", "result": 0.0158, "unit": "µM"}]}
{"smiles": "CC(C)(C)OC(=O)N1CCC(CC(NC(=O)c2ccc(Cl)c(F)c2)c2ccccc2)CC1", "note": "(stereo not drawn) [Example 84, tert-butyl 4-(2-(4-chloro-3-fluorobenzamido)-2-phenylethyl)piperidine-1-carboxylate]", "values": [{"measurement": "IC50", "result": 0.02, "unit": "µM"}]}
{"smiles": "CCOC(=O)N1CCC(CC(NC(=O)c2ccc(F)cc2)c2ccc(OC)nc2)CC1", "note": "(stereo not drawn) [Example 85, ethyl 4-(2-(4-fluorobenzamido)-2-(6-methoxypyridin-3-yl)ethyl)piperidine-1-carboxylate]", "values": [{"measurement": "IC50", "result": 0.02, "unit": "µM"}]}
{"smiles": "C#CCOc1ccc(C(=O)NC(CC2CCN(C(=O)OC(C)(C)C)CC2)c2ccccc2)cc1", "note": "(stereo not drawn) [Example 86, tert-butyl 4-(2-phenyl-2-(4-(prop-2-yn-1-yloxy)benzamido)ethyl)piperidine-1-carboxylate]", "values": [{"measurement": "IC50", "result": 0.02, "unit": "µM"}]}
{"smiles": "CCCc1ccc(C(=O)NC(CC2CCN(C(=O)OC(C)(C)C)CC2)c2ccccc2)s1", "note": "(stereo not drawn) [Example 87, tert-butyl 4-(2-phenyl-2-(5-propylthiophene-2-carboxamido)ethyl)piperidine-1-carboxylate]", "values": [{"measurement": "IC50", "result": 0.02, "unit": "µM"}]}
{"smiles": "CC(C)C(CC1CCN(C(=O)OC(C)(C)C)CC1)NC(=O)c1ccc(Cl)cc1", "note": "(stereo not drawn) [Example 88, tert-butyl 4-(2-(4-chlorobenzamido)-3-methylbutyl)piperidine-1-carboxylate]", "values": [{"measurement": "IC50", "result": 0.02, "unit": "µM"}]}
{"smiles": "CCCOC(=O)N1CCC(CC(NC(=O)c2ccc(Cl)cc2)c2ccccc2)CC1", "note": "(stereo not drawn) [Example 89, propyl 4-(2-(4-chlorobenzamido)-2-phenylethyl)piperidine-1-carboxylate]", "values": [{"measurement": "IC50", "result": 0.02, "unit": "µM"}]}
{"smiles": "CC(C)(C)OC(=O)N1CCC(C[C@H](NC(=O)c2ccc(Cl)cc2)C2CC2)CC1", "note": "[Example 90, (S)-tert-butyl 4-(2-(4-chlorobenzamido)-2-cyclopropylethyl)piperidine-1-carboxylate]", "values": [{"measurement": "IC50", "result": 0.02, "unit": "µM"}]}
{"smiles": "CC(C)(C)OC(=O)N1CCC(CC(NC(=O)c2ccc(Br)cc2)C2CCCCC2)CC1", "note": "(stereo not drawn) [Example 91, tert-butyl 4-(2-(4-bromobenzamido)-2-cyclohexylethyl)piperidine-1-carboxylate]", "values": [{"measurement": "IC50", "result": 0.02, "unit": "µM"}]}
{"smiles": "CC(C)(C)OC(=O)N1CCC(CC(NC(=O)c2ccc(F)s2)C2CCCCC2)CC1", "note": "(stereo not drawn) [Example 92, tert-butyl 4-(2-cyclohexyl-2-(5-fluorothiophene-2-carboxamido)ethyl)piperidine-1-carboxylate]", "values": [{"measurement": "IC50", "result": 0.02, "unit": "µM"}]}
{"smiles": "Cc1ccc(C(=O)NC(CC2CCN(C(=O)C(F)(F)c3ccccc3)CC2)c2ccccc2)s1", "note": "(stereo not drawn) [Example 93, N-(2-(1-(2,2-difluoro-2-phenylacetyl)piperidin-4-yl)-1-phenylethyl)-5-methylthiophene-2-carboxamide]", "values": [{"measurement": "IC50", "result": 0.02, "unit": "µM"}]}
{"smiles": "Cc1ccc(C(=O)NC(CC2CCN(C(=O)C(F)(F)F)CC2)c2ccccc2)s1", "note": "(stereo not drawn) [Example 94, 5-methyl-N-(1-phenyl-2-(1-(2,2,2-trifluoroacetyl)piperidin-4-yl)ethyl)thiophene-2-carboxamide]", "values": [{"measurement": "IC50", "result": 0.02, "unit": "µM"}]}
{"smiles": "CCC(F)(F)C(=O)N1CCC(CC(NC(=O)c2ccc(C)s2)c2ccccc2)CC1", "note": "(stereo not drawn) [Example 95, N-(2-(1-(2,2-difluorobutanoyl)piperidin-4-yl)-1-phenylethyl)-5-methylthiophene-2-carboxamide]", "values": [{"measurement": "IC50", "result": 0.02, "unit": "µM"}]}
{"smiles": "CCCCN(CC)c1nnc(C(CC2CCN(C(=O)OC(C)(C)C)CC2)NC(=O)c2ccc(C)s2)o1", "note": "(stereo not drawn) [Example 96, tert-butyl 4-(2-(5-(butyl(ethyl)amino)-1,3,4-oxadiazol-2-yl)-2-(5-methylthiophene-2-carboxamido)ethyl)piperidine-1-carboxylate]", "values": [{"measurement": "IC50", "result": 0.02, "unit": "µM"}]}
